Assay results reported in the NIST ThermoML archive (doi:10.1021/je050484k).

How the values were obtained:
[1] = xn = mol fraction of the nth substance listed; conditions: for surface tension liquid-gas: Pendant drop shape; for mass density: 101 kPa, Liquid
[2] = for surface tension liquid-gas: Pendant drop shape; for mass density: 101 kPa, Liquid

COCCOC [1,2-dimethoxyethane] + Cc1cc(C)cc(C)c1
[1]
Conditions | mass density [kg/m3] | surface tension liquid-gas [mN/m]
298.15 K, x1 = 0.0487 | 860.76 | –
298.15 K, x1 = 0.0997 | 860.5 | 27.6
298.15 K, x1 = 0.1518 | 860.24 | –
298.15 K, x1 = 0.201 | 860.03 | 27.07
298.15 K, x1 = 0.2499 | 859.85 | –
298.15 K, x1 = 0.2978 | 859.68 | 26.59
298.15 K, x1 = 0.3484 | 859.56 | –
298.15 K, x1 = 0.3973 | 859.41 | 26.14
298.15 K, x1 = 0.451 | 859.35 | –
298.15 K, x1 = 0.4991 | 859.29 | 25.71
298.15 K, x1 = 0.5498 | 859.31 | –
298.15 K, x1 = 0.5977 | 859.3 | 25.35
298.15 K, x1 = 0.6494 | 859.42 | –
298.15 K, x1 = 0.7011 | 859.52 | 25
298.15 K, x1 = 0.7499 | 859.69 | –
298.15 K, x1 = 0.7999 | 859.91 | 24.67
298.15 K, x1 = 0.8474 | 860.25 | –
298.15 K, x1 = 0.9008 | 860.54 | 24.3
298.15 K, x1 = 0.9484 | 860.95 | –
298.15 K, x1 = 1 | 861.38 | 23.93
313.15 K, x1 = 0.0504 | 848.29 | –
313.15 K, x1 = 0.0988 | 847.89 | 26.2
313.15 K, x1 = 0.1505 | 847.48 | –
313.15 K, x1 = 0.1996 | 847.11 | 25.69
313.15 K, x1 = 0.2474 | 846.78 | –
313.15 K, x1 = 0.3 | 846.42 | 25.17
313.15 K, x1 = 0.3495 | 846.14 | –
313.15 K, x1 = 0.4 | 845.85 | 24.69
313.15 K, x1 = 0.4498 | 845.61 | –
313.15 K, x1 = 0.5002 | 845.34 | 24.24
313.15 K, x1 = 0.5502 | 845.18 | –
313.15 K, x1 = 0.5998 | 845 | 23.84
313.15 K, x1 = 0.6509 | 844.85 | –
313.15 K, x1 = 0.6989 | 844.79 | 23.49
313.15 K, x1 = 0.7494 | 844.74 | –
313.15 K, x1 = 0.8 | 844.75 | 23.17
313.15 K, x1 = 0.8505 | 844.8 | –
313.15 K, x1 = 0.8991 | 844.92 | 22.84
313.15 K, x1 = 0.9502 | 845.1 | –
313.15 K, x1 = 1 | 845.28 | 22.51

COCCOC [1,2-dimethoxyethane] + Cc1ccc(C)c(C)c1
[1], x1 = 1
Conditions | mass density [kg/m3] | surface tension liquid-gas [mN/m]
298.15 K | 861.38 | 23.93
313.15 K | 845.31 | 22.51

Cc1cc(C)cc(C)c1 [1,3,5-trimethylbenzene]
[2]
Conditions | mass density [kg/m3] | surface tension liquid-gas [mN/m]
298.15 K | 861.05 | 28.09
313.15 K | 848.74 | 26.82

Cc1cc(C)cc(C)c1 [1,3,5-trimethylbenzene] + COCCO
[1]
Conditions | mass density [kg/m3] | surface tension liquid-gas [mN/m]
298.15 K, x2 = 0 | 861.05 | 28.09
298.15 K, x2 = 0.0486 | 862.67 | –
298.15 K, x2 = 0.0993 | 865.02 | 28.19
298.15 K, x2 = 0.1546 | 867.91 | –
298.15 K, x2 = 0.2021 | 870.67 | 28.23
298.15 K, x2 = 0.2469 | 873.41 | –
298.15 K, x2 = 0.3015 | 877.06 | 28.34
298.15 K, x2 = 0.3469 | 880.3 | –
298.15 K, x2 = 0.4011 | 884.41 | 28.51
298.15 K, x2 = 0.45 | 888.41 | –
298.15 K, x2 = 0.501 | 892.85 | 28.73
298.15 K, x2 = 0.5508 | 897.5 | –
298.15 K, x2 = 0.6004 | 902.45 | 29.03
298.15 K, x2 = 0.6509 | 907.91 | –
298.15 K, x2 = 0.7003 | 913.59 | 29.35
298.15 K, x2 = 0.7483 | 919.54 | –
298.15 K, x2 = 0.8008 | 926.64 | 29.72
298.15 K, x2 = 0.8501 | 933.84 | –
298.15 K, x2 = 0.9001 | 941.83 | 30.2
298.15 K, x2 = 0.9502 | 950.56 | –
313.15 K, x2 = 0 | 848.74 | 26.82
313.15 K, x2 = 0.0518 | 850.28 | –
313.15 K, x2 = 0.0979 | 852.21 | 26.93
313.15 K, x2 = 0.1489 | 854.71 | –
313.15 K, x2 = 0.198 | 857.38 | 26.91
313.15 K, x2 = 0.2497 | 860.47 | –
313.15 K, x2 = 0.3009 | 863.78 | 26.97
313.15 K, x2 = 0.349 | 867.13 | –
313.15 K, x2 = 0.3988 | 870.82 | 27.02
313.15 K, x2 = 0.4527 | 875.14 | –
313.15 K, x2 = 0.5005 | 879.25 | 27.13
313.15 K, x2 = 0.5497 | 883.79 | –
313.15 K, x2 = 0.6003 | 888.79 | 27.36
313.15 K, x2 = 0.6491 | 893.96 | –
313.15 K, x2 = 0.6995 | 899.77 | 27.67
313.15 K, x2 = 0.7498 | 906.04 | –
313.15 K, x2 = 0.8001 | 912.79 | 28.01
313.15 K, x2 = 0.8374 | 918.17 | –
313.15 K, x2 = 0.9006 | 928.15 | 28.55
313.15 K, x2 = 0.9491 | 936.64 | –

Cc1cc(C)cc(C)c1 [1,3,5-trimethylbenzene] + COCCOC
[1], x2 = 0
Conditions | mass density [kg/m3] | surface tension liquid-gas [mN/m]
298.15 K | 861.05 | 28.09
313.15 K | 848.74 | 26.82

COCCO [2-methoxyethan-1-ol]
[2]
Conditions | mass density [kg/m3] | surface tension liquid-gas [mN/m]
298.15 K | 960.02 | 30.88
313.15 K | 946.17 | 29.42

COCCO [2-methoxyethan-1-ol] + Cc1cc(C)cc(C)c1
[1], x1 = 1
Conditions | mass density [kg/m3] | surface tension liquid-gas [mN/m]
298.15 K | 960.02 | 30.88
313.15 K | 946.17 | 29.42

COCCO [2-methoxyethan-1-ol] + Cc1ccc(C)c(C)c1
[1], x1 = 1
Conditions | mass density [kg/m3] | surface tension liquid-gas [mN/m]
298.15 K | 960.02 | 30.88
313.15 K | 946.17 | 29.42
